Assay results reported in patent publication US20180161366A1, “METHODS OF OBTAINING MONONUCLEAR BLOOD CELLS AND USES THEREOF” (Biokine Therapeutics Ltd., priority 2015, published 2018).
Where “and” joins values, the source holds several entries; their conditions need not be identical. Equal values may be shown once. Read-outs that look alike come from different tables or passages of the source. Non-standard residues stand in square brackets, D forms with d. *: point of attachment. Benzoyl(4-F) = O=C(c1ccc(F)cc1)*; Cit = NC(=O)NCCC[C@H](N)C(=O)O

Experiments:
[1] = system: healthy subjects; assay type: in vivo; conditions: for Mean CD34+ count (HSPC): four hours post first administration, baseline 5.8/μL, placebo 8; for Mean count of CD34+ HSPC: four hours post second administration, placebo 9
Protocol: (§1) White blood cell count—Blood count assays were performed using Beckman-Coulter analyzers (GENS,750,000).
(§2) Flow cytometry—Cells (100 μl) were stained for 30 minutes in 0.1 ml FACS buffer with fluorescence antibodies directed against Human CD3, CD19, CD56, CD4, CD8, CCR7, CD83, lin-cocktail, CD11c, CD45RA, CD25, /Foxp3+, CD16, CD34, CD38 CD105 or matched isotype controls and mouse CD3, and B220 all from eBioscience San Diego, Calif. 92121 USA. Following staining the cells were washed with FACS buffer and analyzed by flow cytometry (5 μl per sample) using the FACS Caliber Flow Cytometer (BD Biosciences). Data was analyzed using software from CellQuest (version 3.3; BD Biosciences). Cells were first gated according to the forward scatter and side scatter parameters to exclude dead cells and the number and percent of each cell population (e.g. HSPCs, T cells, B cells, NK cells, NKT cells and DCs) was analyzed.
The first part of the study was a randomized, double-blind, placebo-controlled dose escalation. […] After obtaining informed consent, BL-8040 was administered subcutaneously (SC) once daily on 2 consecutive days at a dose of 0.5, 0.75 or 1 mg/kg.

[2] = system: healthy subjects; experiment: Open label single injection of BL-8040 followed by leukapheresis: composition of collected graft and kinetics of WBC, ImDC and T cells; assay type: in vivo, human
Protocol: (§3) FIG. 1 is a graph illustrating kinetic analysis of the effect of BL-8040 administration on mobilization of white blood cells (WBC) to the peripheral blood. The figure presents a time course of total WBC in the peripheral blood of subjects in response to a single SC administration of 1 mg/kg BL-8040 as determined by flow cytometry.
as §3, with “FIG. 2” for “FIG. 1”, “of immature dendritic” for “of white blood”, “cells (ImDC)” for “cells (WBC)”, “of ImDC” for “of total WBC”
as §3, with “FIG. 3” for “FIG. 1”, “of CD3+ T” for “of white blood”, “cells” for “cells (WBC)”, “of CD3+ T” for “of total WBC”
Leukapheresis—The leukapheresis procedure was commenced approximately 4 hours (±1 hour) post BL-8040 injection. Eighteen (18) Liter apheresis was collected at a Bone Marrow Transplant unit using the Spectra Optia® Apheresis System.
as §1, §2
The second part of the study was an open label test. 8 healthy subjects received a single injection of BL-8040 (1 mg/kg) and 3-4 hours later were subjected to a standard leukapheresis (18 L) procedure. The composition of the collected graft was tested for the number of WBCs per kg, number of CD34+ HSPC per kg and number and type of T cells, B cells, NK cells and dendritic cells (DC) per kg.

[3] = system: C57BL mice; experiment: Number of CD3+ T cells and B220+ B cells in spleen and peripheral lymph nodes of mice (FIG. 4); assay type: in vivo, mouse; conditions: 5 mg/kg
Protocol: FIG. 4 are graphs presenting the number of CD3+ T cells and B220+ B cells in spleen and peripheral lymph nodes (PLN) of C57BL mice prior (denoted as control) and following administration of 5 mg/kg BL-8040, as determined by flow cytometry.
as §2

[4] = system: C57BL/6 mice; experiment: BL8040-induced mobilization of T cell subsets in naive mice or mice bearing pancreatic or melanoma cancer; assay type: in vivo; conditions: 400 μg/mouse SC
Protocol: Six-to 8-week-old female or male C57BL/6 were purchased from Harlan laboratories. Mice were maintained and all animal experiments were conducted according to the protocols approved by the institutional animal care of the Hebrew university.
Female C57BL/6 mice were inoculated subcutaneously at the right flank with 1× 10^6 B16F10 cells in 0.1 mL PBS. When tumors reached 90 to 150 mm^2 in size (after two weeks), mice were treated with BL-8040, according to the below regimen.
1.5×10^6 Livmet cells/10 μl PBS and 10 μl Matrigel (BD Biosciences) were injected into the pancreas of male C57BL/6 mice. Mice were treated with BL8040, 3 weeks after the injection.
BL8040 (400 μg/mouse dissolved in phosphate-buffered saline) was administered once by subcutaneous injection and 2 h later the blood was collected into tube with heparin.
Fluorescent-activated cell sorting analysis was performed on whole blood (day 0) and expanded cells (day 10).
Whole blood was treated with red blood cell lysis solution (0 155 M NH4Cl, 0.01 M KHCO3, 0.01 mmol/l EDTA, pH 7.4) in order to lyse the erythrocytes. Isolated cells were washed with PBS, re-suspended with 0.1 ml of PBS and stained with fluorescent antibodies directed against specific surface markers.
Cells were incubated with mobs: CD8-PE, CD4-APC, CD3-FITC, CD25-PE-Cy7, CD69-PerCP, CD44-PE-Cy7, CD137-PE-Cy7, CD279-FITC, CD62L-FITC and CD223-FITC (eBioscience).

[5] = molecular target: CXCR4 receptor (Homo sapiens, UniProt P61073); conditions: cited from earlier work
Chain of CXCR4 receptor (P61073 whole entry): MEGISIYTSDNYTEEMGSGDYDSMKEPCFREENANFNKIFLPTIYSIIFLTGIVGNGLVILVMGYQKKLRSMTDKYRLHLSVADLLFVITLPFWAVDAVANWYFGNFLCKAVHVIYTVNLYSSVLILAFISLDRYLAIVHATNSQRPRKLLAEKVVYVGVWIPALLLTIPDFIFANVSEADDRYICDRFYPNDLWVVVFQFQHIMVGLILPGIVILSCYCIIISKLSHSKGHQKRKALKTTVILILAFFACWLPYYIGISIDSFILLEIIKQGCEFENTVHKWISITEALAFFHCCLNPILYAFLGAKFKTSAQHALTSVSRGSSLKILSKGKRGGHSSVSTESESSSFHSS

[6] = system: mice; conditions: single injection; cited from earlier work
[7] = system: myeloid leukemia, hematopoietic tumors and non-small cell lung cancer; conditions: cited from earlier work
[8] = peripheral blood, 0.5-1 mg/kg SC

## 4F-benzoyl-Arg-Arg-Nal-Cys-Tyr-Cit-Lys-DLys-Pro-Tyr-Arg-Cit-Cys-Arg-NH2 ({Benzoyl(4-F)}-RR[Nal]CY[Cit]K[dK]PYR[Cit]CR-NH2; not fully specified; printed as 4F-benzoyl-Arg-Arg-Nal-Cys-Tyr-Cit-Lys-DLys-Pro-Tyr-Arg-Cit-Cys-Arg-NH2; also: cyclised, bridge not given here) [BL-8040]
[1]; 4 hr post BL-8040 administration, baseline 6.3
  mean WBC count: 2.97e+10 L⁻¹
[1]; 0.5 mg/kg
  Mean CD34+ count (HSPC): 37 cells/μL
  Mean count of CD34+ HSPC: 38 cells/μL
[1]; 0.75 mg/kg
  Mean CD34+ count (HSPC): 31 cells/μL
  Mean count of CD34+ HSPC: 46 cells/μL
[1]; 1 mg/kg
  Mean CD34+ count (HSPC): 35 cells/μL
  Mean count of CD34+ HSPC: 58 cells/μL
[1]; healthy subjects, SC once daily on 2 consecutive days, all doses tested (0.5-1 mg/kg)
  safety and tolerability: safe and well tolerated
[1]; healthy subjects, SC, 0.5-1 mg/kg
  primary treatment related adverse effects: mild to moderate transient injection site and systemic reactions
[1]; [8]
  mobilization of MSC and HPC colony forming cells: rapid mobilization
  mobilization of T, B and NK cells: substantial mobilization
[1]; post dosing
  duration of CXCR4 receptor occupancy and pharmacodynamic effect: ≥ 24 h
[2]; 3.5-8 hours following 1 mg/kg
  B cells (CD19+), % of graft: 13.1%
  B cells (CD19+), median: 2.03 × 10^8/Kg and 2.03 (0.32-2.6) × 10^8/Kg
  Central memory CD4 T cells (CD3+/CD4+ CD45RA−/CCR7+), % of CD4+ cells: 37.99%
  Central memory CD8 T cells (CD3+/CD8+ CD45RA−/CCR7+), % of CD8 cells: 33.1%
  Cytotoxic T cells (CD3+CD8+), % of graft: 22.5%
  Cytotoxic T cells (CD3+CD8+), median: 2.89 × 10^8/Kg and 2.89 (1.7-4.9) × 10^8/Kg
  Effector CD4 T cells (CD3+/CD4+ CD45RA+/CCR7−), % of CD4+ cells: 6.24%
  Effector CD8 T cells (CD3+/CD8+ CD45RA+/CCR7−), % of CD8 cells: 1.09%
  Effector memory CD4 T cells (CD3+/CD4+ CD45RA−/CCR7−), % of CD4+ cells: 21.19%
  Effector memory CD8 T cells (CD3+/CD8+ CD45RA−/CCR7−), % of CD8 cells: 1.94%
  HSPC (CD34+), % of graft: 0.78%
  HSPC (CD34+), median: 11.89 × 10^6/Kg and 11.89 (5.1-15.0) × 10^6/Kg
  Immature DCs (lin-CD11c+CD83−), % of graft: 0.95%
  Immature DCs (lin-CD11c+CD83−), median: 1.16e+07 kg⁻¹
  NK cells (CD3−CD56+), % of graft: 4.76%
  NK cells (CD3−CD56+), median: 0.53 × 10^8/Kg and 0.53 (0.15-1.55) × 10^8/Kg
  NKT cells (CD3+CD56+), % of graft: 1.2%
  NKT cells (CD3+CD56+), median: 9.8e+06 kg⁻¹
  Naïve CD4 T cells (CD3+/CD4+ CD45RA+/CCR7+), % of CD4+ cells: 34.61%
  Naïve CD8 T cells (CD3+/CD8+ CD45RA+/CCR7+), % of CD8 cells: 63.89%
  Regulatory T cells (CD4+CD25+Foxp3+), % of graft: 1.28%
  Regulatory T cells (CD4+CD25+Foxp3+), median: 1.61e+07 kg⁻¹
  T cells (CD3+), % of graft: 48.08%
  T cells (CD3+), median: 7.32 × 10^8/Kg and 7.32 (4.0-8.5) × 10^8/Kg
  T helper cells (CD3+CD4+), % of graft: 21.7%
  T helper cells (CD3+CD4+), median: 3.3 × 10^8/Kg and 3.3 (1.44-3.9) × 10^8/Kg
[2]; 24 hours following administration, FIG. 3
  number of T cells in the periphery at 24 hours: remains high
[2]; following administration of BL-8040
  time at which number of T cells in the periphery started to decline: 48 h
[2]; ratio of medians
  Fold Difference (BL-8040/AMD3100), B cells CD19: 2.00
  Fold Difference (BL-8040/AMD3100), Cytotoxic T cells CD3+CD8+: 2.22
  Fold Difference (BL-8040/AMD3100), HSPC CD34+: 4.10
  Fold Difference (BL-8040/AMD3100), NK cells CD3−CD56+: 1.77
  Fold Difference (BL-8040/AMD3100), T cells CD3+: 1.59
  Fold Difference (BL-8040/AMD3100), T helper cells CD3+CD4+: 1.03
  Fold Difference (BL-8040/G-CSF), Cytotoxic T cells CD3+CD8+: 7.23
  Fold Difference (BL-8040/G-CSF), HSPC CD34+: 2.83
  Fold Difference (BL-8040/G-CSF), NK cells CD3−CD56+: 2.65
  Fold Difference (BL-8040/G-CSF), T cells CD3+: 5.63
  Fold Difference (BL-8040/G-CSF), T helper cells CD3+CD4+: 3
[2]; single 1 mg/kg SC, FIG. 1
  increase in the total number of WBC: 5-7 fold
[2]; single administration, FIGS. 2-3
  time within which mobilization of DCs and T cells occurs: 3 to 4 h
[3]
  source of mobilized T cells (spleen and peripheral lymph nodes counts): T cells are mobilized from the lymph node into the blood
[4]; cancerous mice vs naive mice, FIG. 6B
  CD69+ CD25+ activated T cells in collected cells: more CD69+ CD25+ activated T cells
[4]; tumor bearing mice vs non injected or naive mice, blood 2 h later, FIG. 6A
  mobilization of CD4 and CD8 cells: increased mobilization of both CD4 and CD8 cells
[5]
  binding to the CXCR4 receptor: high affinity and long receptor occupancy
[6]
  mobilization of long term repopulating stem cells: mobilized long term repopulating stem cells sufficient for transplantation
[7]
  toxicity against tumors: toxic against several tumors
